Experiments:
[1] = system: MCF-7 human breast cancer cell line; experiment: Inhibition of MCF-7 cell proliferation (CCK-8); format: cell-based; settings: MCF7, MCF-7 cells, 72 hours
Experimental: 1. Reagents and Consumables
Cell Counting Reagent Kit 8 (Cell Counting Kit-8, Cat# CK04-13, Dojindo);
96-well culture plate (Cat #3599, Corning Costar);
Medium and fetal bovine serum (GIBCO);
Desktop Microplate Reader (SpectraMax M5 Microplate Reader, Molecular Devices);
MCF-7 human breast cancer cell line (purchased from Shanghai cell resource center, Chinese Academy of Sciences).
2. Preparation of Reagents
Preparation of culture medium: MEM+10% FBS+0.01 mg/ml Human recombinant insulin; Preparation of the compound: The compounds were diluted with DMSO to a final concentration of 10 mM;
(1) The logarithmic growth phase cells were collected, counted, resuspended the cells with complete culture medium. The cells were adjusted to the appropriate concentration (determined according to the cell density optimization test results) and inoculated into 96-well plates, 100 μL of cell suspension per well. The cells were incubated in an incubator for 24 hours at 37° C. with 100% relative humidity, 5% CO2; […]
(5) The absorbance at 450 nm wavelength was measured on a SpectraMax M5 Microplate Reader after gently shaking. The inhibition rate was calculated using the absorbance at 650 nm as a reference. […]

ERα = molecular target: T1, ERα (Homo sapiens, UniProt P03372); experiment: ERα down-regulation immunofluorescence assay in MCF-7 cells; format: cell-based; settings: immunofluorescence of ERα level, read-out: IC50 (nM) ERα down-degradation
T1 construct: host or cells: MCF-7
T1 sequence (P03372 1-595): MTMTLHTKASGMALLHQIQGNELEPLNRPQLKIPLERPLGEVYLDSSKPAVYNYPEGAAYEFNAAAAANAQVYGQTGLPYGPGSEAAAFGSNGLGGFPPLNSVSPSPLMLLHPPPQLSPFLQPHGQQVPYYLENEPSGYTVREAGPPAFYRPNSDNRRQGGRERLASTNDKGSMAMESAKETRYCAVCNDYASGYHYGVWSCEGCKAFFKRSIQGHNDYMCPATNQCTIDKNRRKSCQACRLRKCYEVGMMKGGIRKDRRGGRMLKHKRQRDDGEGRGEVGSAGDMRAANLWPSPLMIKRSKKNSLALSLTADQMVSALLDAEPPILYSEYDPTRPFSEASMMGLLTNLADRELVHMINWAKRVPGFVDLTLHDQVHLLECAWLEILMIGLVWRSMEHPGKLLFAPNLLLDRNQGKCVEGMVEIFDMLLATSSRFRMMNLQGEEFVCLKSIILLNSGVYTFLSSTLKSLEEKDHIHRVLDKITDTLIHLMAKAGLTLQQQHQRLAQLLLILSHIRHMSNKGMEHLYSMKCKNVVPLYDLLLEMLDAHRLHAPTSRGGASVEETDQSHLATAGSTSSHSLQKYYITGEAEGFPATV
Experimental: The down-regulation of the preferred compounds of the present invention on the protein level of ERα is evaluated by immunofluorescence assay using human breast cancer cell line MCF-7. MCF-7 cells used in the experiment were revived directly from frozen cells (about 5×10^6). The MCF-7 frozen cell line (Sigma D5921) purchased from Sigma was stored in DMEM medium containing 2 mM […]. 5% (v/v) Charcoal/Dextran-treated bovine serum […] were added to the revived MCF-7 cells and the cell concentration was determined using Coulter Counter.
The cells used for the test were diluted to 3.75×10^4 cells/mL with culture medium and 40 μL/well of the above cell suspension was transferred to 384-well black transparent bottom plates and incubated overnight at 37° C., 5% CO2. 10 mM compound stock solutions were diluted to a series of test concentrations (10 mM, 0.1 mM, 1 μM, 0.01 μM etc.) and dispensed into cell plates. 20 μL of 11.1% (v/v) aqueous formaldehyde solution (phosphate buffered saline) was added to each of the different concentrations of the test compounds and MCF-7 cell culture solution (40 μL), and the final concentration of formaldehyde in the solution was 3.7% (v/v). Cells were fixed at room temperature for 20 minutes, washed twice with 250 μL of PBS/Proclin, and then 40 μL of PBS/Proclin was added and refrigerated at 4° C. The immunostaining of the protein was performed using the automated AutoElisa kit. The PBS/Proclin solution was aspirated from each plate well and then 40 μL of PBS containing 0.5% Tween 20 (v/v) was added for cell permeation. After one hour, the plate was washed with 250 μL of PBS/0.05% Tween 20/Proclin for three times, and 20 μL of ERα rabbit monoclonal antibody (Thermofisher) in PBS/Tween™ 20/3% (w/v) BSA solution (1:1000) was added. The plates were incubated overnight at 4° C., washed three times with 250 μL of PBS/Tween™ 20/Proclin, and then 20 μL of goat anti-rabbit IgG AlexaFluor 594 or goat anti-rabbit IgG AlexaFluor 488 antibody (containing Hoechst stain (1:5000) in PBS/Tween™ 20/3% (w/v) BSA solution was added, and the system was incubated at room temperature for one hour. After the plates were washed three times with 250 μL of PBS/0.05% (v/v) Tween™ 20/Proclin, 20 μL of PBS was added and the paltes were kept in dark place at 4° C. The level of estrogen receptor ERα in MCF-7 cells was calculated through Cellomics Arrayscan detection of fluorescence emission intensity at two emission wave bands at 594 nm (24-hour time point) and 488 nm (5-hour time point). The average fluorescence emission intensity of each cell is positively correlated with the ERα receptor level of the cell. The primitive fluorescence data was used to obtain the fitting curve by software such as Origin or Genedata. Half maximal inhibitory concentration IC50 was used to characterize the down-regulation of estrogen receptor ERα by the test compounds, which is the concentration of the test compound when the fluorescence emission intensity is reduced to 50% of the average maximum fluorescence intensity.

Row | SMILES | IC50 [1] [nM] | DC50 (ERα) [nM]
1 | C[C@@H]1Cc2c([nH]c3ccccc23)[C@@H](c2c(F)cc(/C=C/C(=O)O)cc2F)N1CC1(F)CC1 [Example 1, (E)-3-(3,5-difluoro-4-((1R,3R)-2-((1-fluorocyclopropyl)methyl)-3-methyl-2,3,4,9-tetrahydro-1H-pyrido[3,4-b]indol-1-yl)phenyl)acrylic acid] | 0.34 | 0.1 to 10
2 | C[C@@H]1Cc2c([nH]c3cccc(F)c23)[C@@H](c2c(F)cc(/C=C/C(=O)O)cc2F)N1CC1(F)CC1 [Example 12, (E)-3-(3,5-difluoro-4-((1R,3R)-5-fluoro-2-((1-fluorocyclopropyl)methyl)-3-methyl-2,3,4,9-tetrahydro-1H-pyrido[3,4-b]indol-1-yl)phenyl)acrylic acid] | 1.45 | 0.1 to 10
